Source: patent US12077503B2, “Substituted cyclic amides and their use as herbicides” (FMC CORPORATION, priority 2015, dated 2024)

Experiments:
Assay type in all cases: in vivo
[1] = test system: barnyardgrass (Echinochloa crus-galli); assay: Test G Pre-Emergence Protocol; settings: Echinochloa crus-galli, pre-emergence, 312 h, evaluated after 13 days
Outline: (§1)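 Scores are visual damage ratings from 0 (no damage) to 100 (total plant kill), taken 13 days after treatment. Compound was sprayed one day post-sowing at 15.625, 62.5 or 250 g/ha in 50:50 acetone/water with 0.5% Tween 20.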

[2] = test system: corn (Zea mays); assay: Test G Pre-Emergence Protocol; settings: Zea mays, pre-emergence, 312 h, evaluated after 13 days
Outline: as §1

[3] = test system: giant foxtail (Setaria faberi); assay: Test G Pre-Emergence Protocol; settings: Setaria faberi, pre-emergence, 312 h, evaluated after 13 days
Outline: as §1

[4] = test system: ivy-leaved morning glory (Ipomoea hederacea); assay: Test G Pre-Emergence Protocol; settings: Ipomoea, pre-emergence, 312 h, evaluated after 13 days
Outline: as §1

[5] = test system: redroot pigweed (Amaranthus retroflexus); assay: Test G Pre-Emergence Protocol; settings: Amaranthus retroflexus, pre-emergence, 312 h, evaluated after 13 days
Outline: as §1

[6] = test system: velvetleaf (Abutilon theophrasti); assay: Test G Pre-Emergence Protocol; settings: Abutilon theophrasti, pre-emergence, 312 h, evaluated after 13 days
Outline: as §1

[7] = test system: barnyardgrass (Echinochloa crus-galli); assay: Test G Post-Emergence Protocol; settings: Echinochloa crus-galli, post-emergence, 312 h
Outline: (§2)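 Damage was rated 13 days after treatment from 0 (none) to 100 (plant killed). Compound was applied as a spray at 15.625, 62.5 or 250 g/ha in 50:50 acetone/water containing 0.5% Tween 20, onto 8-day-old potted plants kept in a glasshouse (24/16 °C, 14 h light, 65% humidity).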

[8] = test system: corn (Zea mays); assay: Test G Post-Emergence Protocol; settings: Zea mays, post-emergence, 312 h
Outline: as §2

[9] = test system: giant foxtail (Setaria faberi); assay: Test G Post-Emergence Protocol; settings: Setaria faberi, post-emergence, 312 h
Outline: as §2

[10] = test system: ivy-leaved morning glory (Ipomoea hederacea); assay: Test G Post-Emergence Protocol; settings: Ipomoea, post-emergence, 312 h
Outline: as §2

[11] = test system: redroot pigweed (Amaranthus retroflexus); assay: Test G Post-Emergence Protocol; settings: Amaranthus retroflexus, post-emergence, 312 h
Outline: as §2

[12] = test system: velvetleaf (Abutilon theophrasti); assay: Test G Post-Emergence Protocol; settings: Abutilon theophrasti, post-emergence, 312 h
Outline: as §2

Q: Which pest or weed control at 15.625 g/ha ([1]; 15.625 g ai/ha, read-out: Barnyard grass damage rating (100=total damage to plant; 0=no damage to plant)) does the source give for `COc1c(Cl)ccc([C@H]2CNC(=O)[C@@H]2C(=O)Nc2cccc(F)c2F)c1F` (racemic) [Compound 1472] here?
A: 10%

Q: What about the pest or weed control at 62.5 g/ha ([1]; 62.5 g ai/ha, 100=total damage to plant, 0=no damage to plant, read-out: plant damage rating, Barnyardgrass) of the same compound?
A: 40%

Q: What about the pest or weed control at 250 g/ha ([1]; 250 g ai/ha, read-out: Barnyardgrass damage rating (100=total damage to plant; 0=no damage to plant)) of the same compound?
A: 80%

Q: And the plant injury at 15.625 g/ha ([2]; 15.625 g ai/ha, read-out: Corn damage rating (100=total damage to plant; 0=no damage to plant))?
A: 0%

Q: What about the plant injury at 62.5 g/ha ([2]; 62.5 g ai/ha, 100=total damage to plant, 0=no damage to plant, read-out: plant damage rating, Corn) of the same compound?
A: 0%

Q: And the plant injury at 250 g/ha ([2]; 250 g ai/ha, read-out: Corn damage rating (100=total damage to plant; 0=no damage to plant))?
A: 20%

Q: What about the pest or weed control at 15.625 g/ha ([3]; 15.625 g ai/ha, read-out: Foxtail, Giant damage rating (100=total damage to plant; 0=no damage to plant)) of the same compound?
A: 10%

Q: And the pest or weed control at 62.5 g/ha ([3]; 62.5 g ai/ha, 100=total damage to plant, 0=no damage to plant, read-out: plant damage rating, Foxtail, Giant)?
A: 50%

Q: And the pest or weed control at 250 g/ha ([3]; 250 g ai/ha, read-out: Foxtail, Giant damage rating (100=total damage to plant; 0=no damage to plant))?
A: 80%

Q: What about the pest or weed control at 15.625 g/ha ([4]; 15.625 g ai/ha, read-out: Morning-glory, Ivy-leaved damage rating (100=total damage to plant; 0=no damage to plant)) of the same compound?
A: 0%

Q: And the pest or weed control at 62.5 g/ha ([4]; 62.5 g ai/ha, 100=total damage to plant, 0=no damage to plant, read-out: plant damage rating, Morningglory, Ivy-leaved)?
A: 0%

Q: What about the pest or weed control at 250 g/ha ([4]; 250 g ai/ha, read-out: Morningglory, Ivy-leaved damage rating (100=total damage to plant; 0=no damage to plant)) of the same compound?
A: 0%

Q: And the pest or weed control at 15.625 g/ha ([5]; 15.625 g ai/ha, read-out: Pigweed, Redroot damage rating (100=total damage to plant; 0=no damage to plant))?
A: 0%

Q: And the pest or weed control at 62.5 g/ha ([5]; 62.5 g ai/ha, 100=total damage to plant, 0=no damage to plant, read-out: plant damage rating, Pigweed, Redroot)?
A: 0%

Q: And the pest or weed control at 250 g/ha ([5]; 250 g ai/ha, read-out: Pigweed, Redroot damage rating (100=total damage to plant; 0=no damage to plant))?
A: 0%

Q: What about the pest or weed control at 15.625 g/ha ([6]; 15.625 g ai/ha, read-out: Velvetleaf damage rating (100=total damage to plant; 0=no damage to plant)) of the same compound?
A: 0%

Q: And the pest or weed control at 62.5 g/ha ([6]; 62.5 g ai/ha, 100=total damage to plant, 0=no damage to plant, read-out: plant damage rating, Velvetleaf)?
A: 0%

Q: What about the pest or weed control at 250 g/ha ([6]; 250 g ai/ha, read-out: Velvetleaf damage rating (100=total damage to plant; 0=no damage to plant)) of the same compound?
A: 0%

Q: And the pest or weed control at 15.625 g/ha ([7]; 15.625 g ai/ha, evaluated after 13 days (100=total damage to plant; 0=no damage to plant), read-out: Barnyardgrass damage rating)?
A: 10%

Q: And the pest or weed control at 62.5 g/ha ([7]; 62.5 g ai/ha, evaluated after 13 days, read-out: Barnyardgrass damage rating (100=total damage to plant; 0=no damage to plant))?
A: 30%

Q: And the pest or weed control at 250 g/ha ([7]; 250 g ai/ha, evaluated after 13 days, read-out: damage to plant, Barnyardgrass (100=total damage to plant; 0=no damage to plant))?
A: 50%

Q: And the plant injury at 15.625 g/ha ([8]; 15.625 g ai/ha, evaluated after 13 days (100=total damage to plant; 0=no damage to plant), read-out: Corn damage rating)?
A: 10%

Q: And the plant injury at 62.5 g/ha ([8]; 62.5 g ai/ha, evaluated after 13 days, read-out: Corn damage rating (100=total damage to plant; 0=no damage to plant))?
A: 20%

Q: What about the plant injury at 250 g/ha ([8]; 250 g ai/ha, evaluated after 13 days, read-out: damage to plant, Corn (100=total damage to plant; 0=no damage to plant)) of the same compound?
A: 40%

Q: And the pest or weed control at 15.625 g/ha ([9]; 15.625 g ai/ha, evaluated after 13 days (100=total damage to plant; 0=no damage to plant), read-out: Foxtail, Giant damage rating)?
A: 10%

Q: What about the pest or weed control at 62.5 g/ha ([9]; 62.5 g ai/ha, evaluated after 13 days, read-out: Foxtail, Giant damage rating (100=total damage to plant; 0=no damage to plant)) of the same compound?
A: 50%

Q: And the pest or weed control at 250 g/ha ([9]; 250 g ai/ha, evaluated after 13 days, read-out: damage to plant, Foxtail, Giant (100=total damage to plant; 0=no damage to plant))?
A: 70%

Q: What about the pest or weed control at 15.625 g/ha ([10]; 15.625 g ai/ha, evaluated after 13 days (100=total damage to plant; 0=no damage to plant), read-out: Morningglory, Ivy-leaved damage rating) of the same compound?
A: 20%

Q: What about the pest or weed control at 62.5 g/ha ([10]; 62.5 g ai/ha, evaluated after 13 days, read-out: Morningglory, Ivy-leaved damage rating (100=total damage to plant; 0=no damage to plant)) of the same compound?
A: 20%

Q: What about the pest or weed control at 250 g/ha ([10]; 250 g ai/ha, evaluated after 13 days, read-out: damage to plant, Morningglory, Ivy-leaved (100=total damage to plant; 0=no damage to plant)) of the same compound?
A: 20%

Q: What about the pest or weed control at 15.625 g/ha ([11]; 15.625 g ai/ha, evaluated after 13 days (100=total damage to plant; 0=no damage to plant), read-out: Pigweed, Redroot damage rating) of the same compound?
A: 0%

Q: What about the pest or weed control at 62.5 g/ha ([11]; 62.5 g ai/ha, evaluated after 13 days, read-out: Pigweed, Redroot damage rating (100=total damage to plant; 0=no damage to plant)) of the same compound?
A: 10%

Q: And the pest or weed control at 250 g/ha ([11]; 250 g ai/ha, evaluated after 13 days, read-out: damage to plant, Pigweed, Redroot (100=total damage to plant; 0=no damage to plant))?
A: 10%

Q: And the pest or weed control at 15.625 g/ha ([12]; 15.625 g ai/ha, evaluated after 13 days (100=total damage to plant; 0=no damage to plant), read-out: Velvetleaf damage rating)?
A: 0%

Q: And the pest or weed control at 62.5 g/ha ([12]; 62.5 g ai/ha, evaluated after 13 days, read-out: Velvetleaf damage rating (100=total damage to plant; 0=no damage to plant))?
A: 10%

Q: And the pest or weed control at 250 g/ha ([12]; 250 g ai/ha, evaluated after 13 days, read-out: damage to plant, Velvetleaf (100=total damage to plant; 0=no damage to plant))?
A: 10%
